This data set is described as follows: Discoloration on storage: rate of increase in ΔE*ab (color difference meter). It is filed as physicochemical. Conditions: stored 4 days at 60° C. under protection from light; FIG. 4-8. The method, then: 20 ml aliquots of the compositions of the examples and comparative examples were filled into a glass bottle followed by determination of the initial ΔE*ab(0) value with a color difference meter (Spectrophotometer Model CM-5, Konica Minolta). At this time, purified water was used for the reference color. ΔE*ab(0) values are represented by the equation indicated below and used as an indicator to represent the degree of coloring of the compositions of the examples and comparative examples. ΔE*ab={(ΔL*)^2+(Δa*)^2+(Δb*)^2}^1/2 [Equation 1]
The L* value (ΔL*) is a value relating to lightness, the a* value (Δa*) is a value relating to red/green opponent colors in both directions, and the b* value (Δb*) is a value relating to blue/yellow opponent colors in both directions. The compositions of the aforementioned examples and comparative examples were each stored (under protection from light) at 40° C., 50° C. and 60° C. and then taken out after 4 days followed by determination of the ΔE*ab(4) value with the aforementioned color difference meter.
The rate of increase in the ΔE*ab values attributable to being stored for 4 days at the aforementioned temperatures was determined using the equation indicated below. The term “(D65)” in the equation indicates the use of Illuminant D65. Rate of increase in ΔE*ab(D65)=ΔE*ab(65)(4)/[…]

The structures appear in SMILES notation.

For the molecule `O=C1O[C@H]([C@@H](O)CO)C(O)=C1O[C@H]1O[C@H](CO)[C@@H](O)[C@H](O)[C@H]1O` [ascorbyl glucoside], the “discoloration, rate of increase in ΔE*ab (in words)” value is “discoloration was determined to not occur”.
